Laboratory results reported in ChEMBL document CHEMBL4330185, “Computer-Assisted Discovery and Structural Optimization of a Novel Retinoid X Receptor Agonist Chemotype” (ACS Med Chem Lett, 2019).
In brackets after ≈: the same amount, converted by molar mass. Blank lines part the entries; values can stand above or below the compound they belong to. Activity calls are given as the source filed them. The rule behind the calls is not given here.

Key:
[1] = biological target: Luciferin 4-monooxygenase (Photinus pyralis) (UniProt P08659); assay: Inhibition of firefly luciferase activity in HEK293T cells co-expressing human Gal4-DBD fused RXRbeta LBD after 12 to 14 hrs by luminescence assay; assay type: cell-based
[2] = biological target: Luciferin 4-monooxygenase (Photinus pyralis) (UniProt P08659); assay: Inhibition of firefly luciferase activity in HEK293T cells co-expressing human Gal4-DBD fused RXRgamma LBD after 12 to 14 hrs by luminescence assay; assay type: cell-based
[3] = biological target: Luciferin 4-monooxygenase (Photinus pyralis) (UniProt P08659); assay: Inhibition of firefly luciferase activity in HEK293T cells co-expressing human Gal4-DBD fused RXRalpha LBD after 12 to 14 hrs by luminescence assay; assay type: cell-based
[4] = biological target: T1, Retinoid X receptor (Homo sapiens) (UniProt P28702+P48443+P19793); assay: Agonist activity at RXR in human HepG2 cells assessed as induction of ADIPOQ mRNA expression at 1 to 10 uM after 8 hrs by RT-PCR analysis; assay type: cell-based
[5] = Synergistic agonist activity at full length human PPARgamma-RXR expressed in HEK293T cells co-expressing PPRE1-pGL3 after 12 to 14 hrs in presence of rosiglitazone by luciferase reporter gene assay; assay type: cell-based; details: HEK-293T
[6] = biological target: T2, Retinoic acid receptor RXR-beta (Homo sapiens, UniProt P28702); assay: Agonist activity at human Gal4-DBD fused RXRbeta LBD expressed in HEK293T cells after 12 to 14 hrs by luciferase reporter gene assay; assay type: cell-based; details: read-out: EC50
T2 sequence (P28702 whole entry): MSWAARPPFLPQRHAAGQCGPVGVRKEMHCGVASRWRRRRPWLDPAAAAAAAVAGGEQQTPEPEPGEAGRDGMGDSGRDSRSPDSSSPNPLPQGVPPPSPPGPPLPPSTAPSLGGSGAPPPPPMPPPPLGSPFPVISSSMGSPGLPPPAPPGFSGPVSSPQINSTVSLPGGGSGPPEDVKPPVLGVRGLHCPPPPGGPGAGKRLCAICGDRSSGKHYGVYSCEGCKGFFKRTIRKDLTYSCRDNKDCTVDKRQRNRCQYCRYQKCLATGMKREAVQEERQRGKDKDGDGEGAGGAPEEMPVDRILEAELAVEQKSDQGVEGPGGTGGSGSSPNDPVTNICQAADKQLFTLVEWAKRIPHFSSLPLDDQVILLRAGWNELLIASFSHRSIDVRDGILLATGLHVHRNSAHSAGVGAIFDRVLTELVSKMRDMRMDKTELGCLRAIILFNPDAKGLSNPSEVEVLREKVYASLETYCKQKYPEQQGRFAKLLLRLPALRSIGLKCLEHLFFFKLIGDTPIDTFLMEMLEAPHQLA

[7] = biological target: T3, Retinoic acid receptor RXR-alpha (Homo sapiens) (UniProt P19793); assay: Agonist activity at human Gal4-DBD fused RXRalpha LBD expressed in HEK293T cells after 12 to 14 hrs by luciferase reporter gene assay relative to bexarotene; assay type: cell-based
T3 sequence (whole entry): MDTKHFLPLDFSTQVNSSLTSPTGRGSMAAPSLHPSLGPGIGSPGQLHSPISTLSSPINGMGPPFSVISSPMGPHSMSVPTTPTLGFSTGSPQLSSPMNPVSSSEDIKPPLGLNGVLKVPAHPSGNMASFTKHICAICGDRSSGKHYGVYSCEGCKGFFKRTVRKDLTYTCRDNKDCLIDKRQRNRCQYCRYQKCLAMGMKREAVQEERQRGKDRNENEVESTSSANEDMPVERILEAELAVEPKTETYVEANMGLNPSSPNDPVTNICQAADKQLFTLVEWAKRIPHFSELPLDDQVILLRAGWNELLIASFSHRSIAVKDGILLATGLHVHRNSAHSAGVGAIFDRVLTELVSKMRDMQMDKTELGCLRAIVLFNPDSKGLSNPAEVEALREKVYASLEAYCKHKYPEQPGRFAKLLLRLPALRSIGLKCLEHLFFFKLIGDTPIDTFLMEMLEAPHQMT

[8] = biological target: T4, Retinoic acid receptor RXR-alpha (Homo sapiens, UniProt P19793); assay: Agonist activity at human Gal4-DBD fused RXRalpha LBD expressed in HEK293T cells after 12 to 14 hrs by luciferase reporter gene assay; assay type: cell-based; details: read-out: EC50
T4 sequence (P19793 whole entry): T3 sequence (whole entry)

[9] = biological target: T1, Retinoid X receptor (Homo sapiens); assay: Agonist activity at RXR in human HepG2 cells assessed as induction of ANGPTL4 mRNA expression at 1 to 10 uM after 8 hrs by RT-PCR analysis; assay type: cell-based
[10] = Agonist activity at full length human PPARgamma-RXR expressed in HEK293T cells co-expressing PPRE1-pGL3 after 12 to 14 hrs by luciferase reporter gene assay; assay type: cell-based; details: HEK-293T
[11] = biological target: T1, Retinoid X receptor (Homo sapiens); assay: Agonist activity at RXR in human HepG2 cells assessed as induction of APOE mRNA expression at 1 to 10 uM after 8 hrs by RT-PCR analysis; assay type: cell-based
[12] = biological target: T5, Retinoic acid receptor RXR-beta (Homo sapiens) (UniProt P28702); assay: Agonist activity at human Gal4-DBD fused RXRbeta LBD expressed in HEK293T cells after 12 to 14 hrs by luciferase reporter gene assay relative to bexarotene; assay type: cell-based
T5 sequence (whole entry): T2 sequence (P28702 whole entry)

[13] = Lipophilicity, log P of the compound by HPLC analysis; assay type: physicochemical; details: read-out: logP
Homo sapiens [14] = organism: Homo sapiens; assay: Synergistic agonist activity at full length human RXR-LXR expressed in HEK293T cells co-expressing ABCA1-pGL3 at 1 uM after 12 to 14 hrs in presence of T090 by luciferase reporter gene assay; assay type: cell-based
[15] = Aqueous solubility of the compound after 24 hrs by HPLC analysis; assay type: physicochemical; details: water
Homo sapiens [16] = organism: Homo sapiens; assay: Agonist activity at full length human RXR-LXR expressed in HEK293T cells co-expressing ABCA1-pGL3 at 1 uM after 12 to 14 hrs by luciferase reporter gene assay; assay type: cell-based
[17] = biological target: T6, Retinoic acid receptor RXR-gamma (Homo sapiens, UniProt P48443); assay: Agonist activity at human Gal4-DBD fused RXRgamma LBD expressed in HEK293T cells after 12 to 14 hrs by luciferase reporter gene assay; assay type: cell-based; details: read-out: EC50
T6 sequence (P48443 whole entry): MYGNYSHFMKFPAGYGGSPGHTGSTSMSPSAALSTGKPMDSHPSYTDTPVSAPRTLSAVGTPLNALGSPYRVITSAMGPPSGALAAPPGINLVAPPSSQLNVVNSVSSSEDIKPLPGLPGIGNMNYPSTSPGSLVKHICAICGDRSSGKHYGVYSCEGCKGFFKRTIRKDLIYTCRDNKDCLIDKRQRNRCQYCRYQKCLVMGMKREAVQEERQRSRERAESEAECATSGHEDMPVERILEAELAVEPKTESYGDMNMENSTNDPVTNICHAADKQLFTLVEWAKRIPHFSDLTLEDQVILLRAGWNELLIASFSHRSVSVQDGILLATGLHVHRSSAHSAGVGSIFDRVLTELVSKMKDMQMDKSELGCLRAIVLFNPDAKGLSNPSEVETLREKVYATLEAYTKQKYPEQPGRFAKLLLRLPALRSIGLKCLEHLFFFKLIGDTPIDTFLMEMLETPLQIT

[18] = biological target: T4, Retinoic acid receptor RXR-alpha; assay: Binding affinity to human RXRalpha LBD by ITC
[19] = biological target: T7, Retinoic acid receptor RXR-gamma (Homo sapiens) (UniProt P48443); assay: Agonist activity at human Gal4-DBD fused RXRgamma LBD expressed in HEK293T cells after 12 to 14 hrs by luciferase reporter gene assay relative to bexarotene; assay type: cell-based
T7 sequence (whole entry): T6 sequence (P48443 whole entry)

HepG2 = assay: Cytotoxicity against human HepG2 cells up to 100 uM after 48 hrs by WST1 assay; assay type: cell-based; details: hepg2, 48 h
[20] = biological target: T8, Retinoic acid receptor alpha (Homo sapiens) (UniProt P10276); assay: Agonist activity at human Gal4-DBD fused RARalpha LBD expressed in HEK293T cells at 30 uM after 12 to 14 hrs by luciferase reporter gene assay; assay type: cell-based
T8 sequence (whole entry): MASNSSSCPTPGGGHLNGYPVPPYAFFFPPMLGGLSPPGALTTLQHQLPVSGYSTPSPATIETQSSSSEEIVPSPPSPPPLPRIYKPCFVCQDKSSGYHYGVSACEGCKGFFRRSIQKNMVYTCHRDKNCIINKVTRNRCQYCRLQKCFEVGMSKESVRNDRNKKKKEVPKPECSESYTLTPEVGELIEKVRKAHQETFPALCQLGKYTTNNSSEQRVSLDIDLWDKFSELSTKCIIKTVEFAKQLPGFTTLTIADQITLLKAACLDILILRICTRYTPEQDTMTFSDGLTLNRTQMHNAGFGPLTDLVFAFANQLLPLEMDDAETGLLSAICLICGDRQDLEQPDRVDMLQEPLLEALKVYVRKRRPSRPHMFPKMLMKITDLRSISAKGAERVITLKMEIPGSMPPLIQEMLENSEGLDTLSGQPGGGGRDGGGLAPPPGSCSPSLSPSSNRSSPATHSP

[21] = biological target: T9, Retinoic acid receptor beta (Homo sapiens) (UniProt P10826); assay: Agonist activity at human Gal4-DBD fused RARbeta LBD expressed in HEK293T cells at 30 uM after 12 to 14 hrs by luciferase reporter gene assay; assay type: cell-based
T9 sequence (whole entry): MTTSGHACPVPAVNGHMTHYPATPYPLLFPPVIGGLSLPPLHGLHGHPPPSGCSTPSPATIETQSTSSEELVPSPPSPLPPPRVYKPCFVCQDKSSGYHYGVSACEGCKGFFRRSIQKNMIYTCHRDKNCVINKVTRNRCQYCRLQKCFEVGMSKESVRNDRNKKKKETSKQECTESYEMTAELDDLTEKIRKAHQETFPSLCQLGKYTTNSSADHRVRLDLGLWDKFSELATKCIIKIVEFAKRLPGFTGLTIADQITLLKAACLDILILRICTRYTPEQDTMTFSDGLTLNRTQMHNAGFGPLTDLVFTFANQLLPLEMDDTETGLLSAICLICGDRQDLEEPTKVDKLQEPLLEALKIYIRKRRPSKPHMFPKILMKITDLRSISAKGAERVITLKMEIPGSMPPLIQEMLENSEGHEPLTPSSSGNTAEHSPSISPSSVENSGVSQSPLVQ

[22] = biological target: T10, Retinoic acid receptor gamma (Homo sapiens) (UniProt P13631); assay: Agonist activity at human Gal4-DBD fused RARgamma LBD expressed in HEK293T cells at 30 uM after 12 to 14 hrs by luciferase reporter gene assay; assay type: cell-based
T10 sequence (whole entry): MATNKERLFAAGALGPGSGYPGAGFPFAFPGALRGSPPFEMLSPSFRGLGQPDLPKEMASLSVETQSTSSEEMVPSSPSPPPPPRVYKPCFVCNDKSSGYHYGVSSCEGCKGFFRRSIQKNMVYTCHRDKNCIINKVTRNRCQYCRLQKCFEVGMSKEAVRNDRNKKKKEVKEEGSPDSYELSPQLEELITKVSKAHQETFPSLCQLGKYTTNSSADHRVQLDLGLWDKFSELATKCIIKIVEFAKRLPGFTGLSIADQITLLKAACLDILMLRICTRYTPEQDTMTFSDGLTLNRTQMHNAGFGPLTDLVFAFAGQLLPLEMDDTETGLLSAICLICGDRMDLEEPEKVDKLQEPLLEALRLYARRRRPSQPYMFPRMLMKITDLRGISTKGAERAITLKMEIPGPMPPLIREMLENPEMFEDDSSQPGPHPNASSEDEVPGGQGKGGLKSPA

[23] = biological target: T3, Retinoic acid receptor RXR-alpha (Homo sapiens); assay: Agonist activity at human Gal4-DBD fused RXRalpha LBD expressed in HEK293T cells at 10 uM after 12 to 14 hrs by luciferase reporter gene assay; assay type: cell-based
[24] = biological target: T7, Retinoic acid receptor RXR-gamma (Homo sapiens); assay: Agonist activity at human Gal4-DBD fused RXRgamma LBD expressed in HEK293T cells at 30 uM after 12 to 14 hrs by luciferase reporter gene assay; assay type: cell-based
[25] = biological target: T3, Retinoic acid receptor RXR-alpha (Homo sapiens); assay: Agonist activity at human Gal4-DBD fused RXRalpha LBD expressed in HEK293T cells at 30 uM after 12 to 14 hrs by luciferase reporter gene assay; assay type: cell-based
[26] = biological target: T5, Retinoic acid receptor RXR-beta (Homo sapiens); assay: Agonist activity at human Gal4-DBD fused RXRbeta LBD expressed in HEK293T cells at 30 uM after 12 to 14 hrs by luciferase reporter gene assay; assay type: cell-based

Sequence of Luciferin 4-monooxygenase (Photinus pyralis) (P08659 whole entry, the tested form may be a part): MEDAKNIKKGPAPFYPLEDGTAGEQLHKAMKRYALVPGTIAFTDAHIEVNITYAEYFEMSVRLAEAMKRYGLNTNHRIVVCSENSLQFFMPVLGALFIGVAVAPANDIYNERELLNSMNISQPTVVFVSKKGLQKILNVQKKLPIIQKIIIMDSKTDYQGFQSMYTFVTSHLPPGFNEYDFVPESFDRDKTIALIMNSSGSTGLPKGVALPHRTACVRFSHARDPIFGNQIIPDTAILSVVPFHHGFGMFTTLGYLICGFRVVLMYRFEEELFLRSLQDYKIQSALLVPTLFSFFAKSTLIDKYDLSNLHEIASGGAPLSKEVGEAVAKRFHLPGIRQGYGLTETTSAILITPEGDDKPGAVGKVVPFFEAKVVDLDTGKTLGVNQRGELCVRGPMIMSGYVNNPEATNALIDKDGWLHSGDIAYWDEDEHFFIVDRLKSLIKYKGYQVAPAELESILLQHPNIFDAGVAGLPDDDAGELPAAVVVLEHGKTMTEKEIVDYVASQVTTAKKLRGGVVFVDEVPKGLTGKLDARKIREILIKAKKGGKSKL

- inhibition [1]: Active
- inhibition [2]: Active
- inhibition [3]: Active
Structure (SMILES): O=C(O)c1cccc(COc2ccc3c(c2)CCC3)c1

- Activity [4]: Active
- EC50 [5]: 470 nM
- EC50 [6]: 310 nM
- Emax [7]: 70%
- EC50 [8]: 280 nM
- Activity [9]: Active
- EC50 [10]: 1000 nM
- Activity [11]: Active
- Emax [12]: 44%
- logP [13]: 2.03
- solubility at 24 h [15]: 1.31 µg/mL (≈ 4.3 µM)
- EC50 [17]: 1600 nM
- Kd [18]: 95 nM
- Emax [19]: 94%
Structure (SMILES): O=C(O)c1ccc(COc2ccccc2-c2ccccc2)cc1
- Activity (Homo sapiens [14]): Active
- Activity (Homo sapiens [16]): Active
- Activity (HepG2): Non-Toxic

- EC50 [6]: 8800 nM
- Activity [20]: Active
- Emax [7]: 29%
- EC50 [8]: 6700 nM
- Activity [21]: Active
- Emax [12]: 28%
- Activity [22]: Active
- EC50 [17]: 17000 nM
- Activity [23]: Active
- Emax [19]: 5%
Structure (SMILES): O=C(O)c1ccc(COc2ccc3c(c2)CCC3)cc1
- Activity (HepG2): Non-Toxic

- Activity [24]: inactive
- Activity [25]: inactive
- Activity [26]: inactive
Structure (SMILES): O=C(O)c1ccc(C(=O)Nc2ccc3c(c2)CCC3)cc1
